Values after ≈ are worked out from the molar mass of the structure shown.
Columns and labels:
CAD kinetic solubility = assay type: physicochemical; details: phosphate buffered saline (PBS), aqueous buffer, PBS pH 7.4, 1 hour equilibration at room temperature, from DMSO stock, HPLC-CAD
Procedure: Kinetic solubility was measured using Charged Aerosol Detector (CAD). The aqueous kinetic solubility at pH 7.4 was determined by measuring the concentration of solute in solution after precipitation from DMSO stock solution. The DMSO stock solution was diluted 20-fold with phosphate buffered saline (PBS) pH 7.4 and the solubility of the compound was measured after 1 hour equilibration at room temperature by HPLC-CAD.

human Nav1.8 = human Nav1.8 (Homo sapiens, UniProt Q9Y5Y9); assay: Nav1.8 inhibitory activity, QPatch 48 HTX electrophysiology in HEK293-Nav1.8 cells; assay type: cell-based; design: expressed in transfected cells; host or cells: HEK293; details: half inactivation state voltage protocol (V1/2), HEK293 cells expressing human Nav1.8, read-out: [Nav1.8] pIC50 (converted)
Procedure: Biological Assay 1: Nav1.8 Inhibitory Activity Human embryonic kidney 293 cells (HEK293) expressing human Nav1.8, human Navol and human TREK1 (HEK293-Nav1.8) were grown in T150 cell culture flasks at 37° C., 5% CO2 incubator. HEK293-Nav1.8 were passaged every 2-3 days when confluency reached 80-90% in T150 cell culture flasks.
Pharmacological assessment of compounds of the invention was performed using the QPatch 48 HTX electrophysiological platform. HEK293-Nav1.8 cells were prepared on the day of use by removing culture media, washing in DPBS, adding Accutase (2 mL to cover the surface, aspirate 1 mL then 1-2 minutes at 37° C.) followed by addition of CHO-SFM II to stop the enzyme digestion and in order to obtain a suspension of 3×10^6 cell/mL.
Compounds of the invention were prepared in an extracellular solution of the following composition: NaCl (145 mM), KCl (4 mM), CaCl2) (2 mM), MgCl (2 mM), HEPES (1 mM), Glucose (10 mM), pH 7.4 with NaOH Osmolality 300 mOsM/L. An intracellular solution of the following composition was used: CsF (115 mM), CsCl (20 mm), NaCl (5 mM), EGTA (10 mM), HEPES (10 mM), Sucrose (20 mM), pH 7.2 with CsOH Osmolality 310 mOsm/L.
Utilizing the voltage-clamp mode in the QPatch 48 HTX system a half inactivation state voltage protocol (V1/2) was used to determine pharmacological activity of compounds of the invention at Nav1.8 ion channels. A V1/2 protocol was utilized with the following voltage steps: a holding voltage of −100 mV was established followed by a 20 ms voltage step to 0 mV (P1), followed by an inactivating voltage step at −46 mV for 8 seconds, followed by a step to −100 mV for 20 ms, before a 20 ms step to 0 mV (P2), then returned to the holding voltage of −100 mV. This voltage protocol was repeated at a frequency of every 15 seconds, the current magnitude was quantified at the P2 step throughout the recording. Inhibition of the measured current amplitude with compounds of the invention was analyzed by fitting a 4-6 points dose-response curve allowing determination of the fifty percent inhibition concentration (IC50). P2 currents were normalized according to measurements made at baseline (Baseline, vehicle only), after compound (Input, at each test concentration), and after positive reference compound (FullResponse, to achieve complete block), fit to the following equation: […]
To assess current run-down over the course of the experiment vehicle-only wells were utilized and the normalized current with vehicle-only (n. IVEH) was determined. To correct the compound response for run-down, the currents were corrected according to the following formula:
[formula] • Compound inhibition was fitted to the following Hill Equation to estimate the half maximal inhibition concentration (IC50)
[formula] • where Y is the normalized run-down corrected inhibition relative to the vehicle control (equivalent to n. IRD_Correct), C the test compound concentration, IC50 the concentration of test compound to inhibit the sodium current by 50%, and h the Hill coefficient.

[1] = Rat IV/PO pharmacokinetic study; assay type: in vivo, Han Wistar rats
Procedure: An in vivo rat pharmacokinetic study was conducted to determine whether prodrug compounds of the invention are converted to the respective parent compound upon administration. The rat pharmacokinetic study was conducted with a crossover design on two study days with a one-day recovery period between each study day. Three male, dual catheterized (femoral vein and carotid artery) Han Wistar rats were used for the study. Each rat was also implanted with a gastric catheter for oral dose administration. Rats were dosed at 1 mg/kg by a 60-minute intravenous (IV) infusion (femoral vein cannula), then subsequently oral dosed at 2 mg/kg via the gastric cannula, with 48 hours between dosing sessions. Dose solutions of the compound of Example 4 were prepared in 20% Cavitron/5% DMSO/75% water (IV) and in 6% Cavitron/5% DMSO/89% water (PO) without pH adjustment. The dose solutions were filtered using a 0.22 μm filter. The pH of the final dosing solutions was 6.0.
During the intravenous study leg, blood samples were collected from the carotid artery catheter at target times of 15, 30, 60 (end of infusion), 65, 75, 90, 120, 240, 360, 480, 720, and 1440 minutes following the initiation of the intravenous infusion of the compound of Example 4. During the oral study leg, blood samples were collected prior to dosing and at target times of 15, 30, 60, 90, 120, 180, 240, 360, 480, 720, and 1440 minutes following oral administration. Blood samples (100 μL) were mixed with 100 μL phosphatase inhibitor, a 50 μL aliquot of the blood and inhibitor mixture was transferred to a non-heparinized tube and stored at approximately −80° C. until analyzed. The concentrations in the filtered dose solutions were confirmed by preparing stepwise dilutions first into 50% aqueous acetonitrile with 0.10% formic acid then into heparinized male Wistar Han blood: inhibitor to achieve determined nominal concentrations. Triplicate 50 μL aliquots were removed and were frozen and stored at approximately […] until analyzed by LC-MS/MS as described below. LC-MS/MS was used to quantify the compound of Example 4 and the corresponding parent compound of Example 4A in the biological samples generated in the above described in vivo study.
Samples were prepared by protein precipitation followed by LC-MS/MS analysis employing positive-mode ionization against a set of calibration standards for the compounds prepared in the same matrix. Pharmacokinetic parameters for the study were derived from the concentration versus time profiles. Key pharmacokinetic parameters such as AUC0-∞. (extrapolated area under the blood concentration-time curve), AUC0-t (area under the blood concentration-time curve to the last time point with quantifiable drug), Cmax (maximum concentration), Tmax (time Cmax is achieved), CL (systemic blood clearance), Vdss (steady-state volume of distribution), MRT (mean residence time), and t1/2 (half-life) were determined for the compound of Example 4. The key pharmacokinetic parameters such as AUC0-∞, AUC0-t, Cmax, Tmax, MRT, and t1/2 (half-life) were determined for the parent compound Example 4A. Descriptive statistical data of pharmacokinetic parameters were calculated, including the mean and standard deviation (SD) using Microsoft Excel. The data are shown below in Tables 5A and 5B. Data are reported as mean±SD (N=3).

[2] = male, Han Wistar, prodrug Example 4 in blood, intravenous infusion of Example 4, 1 mg/kg, mean ± SD, N=3
[3] = male, Han Wistar, prodrug Example 4 in blood, intravenous infusion, 1 mg/kg, mean ± SD, N=3

human Nav1.8, sequence (Q9Y5Y9 whole entry): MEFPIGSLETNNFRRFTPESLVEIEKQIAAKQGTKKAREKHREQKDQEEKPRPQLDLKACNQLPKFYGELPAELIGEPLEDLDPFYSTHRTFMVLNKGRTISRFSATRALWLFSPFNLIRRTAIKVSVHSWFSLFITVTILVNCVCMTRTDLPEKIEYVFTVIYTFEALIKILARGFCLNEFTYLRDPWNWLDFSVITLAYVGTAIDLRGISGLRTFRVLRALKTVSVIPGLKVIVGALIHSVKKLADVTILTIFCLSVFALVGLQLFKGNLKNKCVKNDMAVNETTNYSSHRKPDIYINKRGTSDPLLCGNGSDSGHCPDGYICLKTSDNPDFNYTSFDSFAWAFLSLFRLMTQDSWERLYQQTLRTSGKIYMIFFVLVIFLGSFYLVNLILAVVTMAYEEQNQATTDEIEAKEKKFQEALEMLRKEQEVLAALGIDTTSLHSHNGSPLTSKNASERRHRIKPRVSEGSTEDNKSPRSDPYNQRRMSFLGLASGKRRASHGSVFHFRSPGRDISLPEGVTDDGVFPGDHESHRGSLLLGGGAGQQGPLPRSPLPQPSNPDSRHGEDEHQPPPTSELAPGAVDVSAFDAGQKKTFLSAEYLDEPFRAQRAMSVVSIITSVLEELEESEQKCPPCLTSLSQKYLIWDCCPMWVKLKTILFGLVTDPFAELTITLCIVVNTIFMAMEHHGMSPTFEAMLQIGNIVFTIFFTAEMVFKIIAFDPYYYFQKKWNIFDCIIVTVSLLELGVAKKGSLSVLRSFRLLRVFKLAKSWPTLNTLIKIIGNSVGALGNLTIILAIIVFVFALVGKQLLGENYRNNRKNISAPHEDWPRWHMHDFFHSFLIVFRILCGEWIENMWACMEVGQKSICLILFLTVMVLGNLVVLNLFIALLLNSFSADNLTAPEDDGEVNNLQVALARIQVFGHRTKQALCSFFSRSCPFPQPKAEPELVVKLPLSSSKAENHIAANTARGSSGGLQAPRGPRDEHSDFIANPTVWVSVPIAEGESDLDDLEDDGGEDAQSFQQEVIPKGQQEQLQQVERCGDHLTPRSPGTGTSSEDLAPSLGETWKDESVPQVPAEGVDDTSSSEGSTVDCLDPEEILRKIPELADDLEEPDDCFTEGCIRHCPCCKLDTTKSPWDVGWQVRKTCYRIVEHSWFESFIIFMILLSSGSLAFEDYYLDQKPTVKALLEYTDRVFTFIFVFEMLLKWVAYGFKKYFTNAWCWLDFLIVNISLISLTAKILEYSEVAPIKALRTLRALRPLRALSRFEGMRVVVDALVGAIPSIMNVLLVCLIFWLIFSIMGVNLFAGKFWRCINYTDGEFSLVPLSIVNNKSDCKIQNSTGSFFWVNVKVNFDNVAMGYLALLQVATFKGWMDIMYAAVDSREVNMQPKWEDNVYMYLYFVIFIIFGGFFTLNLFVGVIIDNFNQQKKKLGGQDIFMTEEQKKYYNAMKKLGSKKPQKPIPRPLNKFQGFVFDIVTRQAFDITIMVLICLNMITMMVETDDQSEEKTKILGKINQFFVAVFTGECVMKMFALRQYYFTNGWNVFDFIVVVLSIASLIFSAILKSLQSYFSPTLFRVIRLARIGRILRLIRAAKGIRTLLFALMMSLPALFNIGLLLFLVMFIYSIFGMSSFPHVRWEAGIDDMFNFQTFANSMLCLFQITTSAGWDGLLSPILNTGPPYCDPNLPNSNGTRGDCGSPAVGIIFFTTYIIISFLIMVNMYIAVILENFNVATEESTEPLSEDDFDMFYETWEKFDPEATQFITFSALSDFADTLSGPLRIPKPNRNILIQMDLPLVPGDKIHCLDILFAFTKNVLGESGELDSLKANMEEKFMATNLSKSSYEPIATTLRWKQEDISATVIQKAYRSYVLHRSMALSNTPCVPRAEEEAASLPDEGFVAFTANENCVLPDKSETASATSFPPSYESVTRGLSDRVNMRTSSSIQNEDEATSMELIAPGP

| solubility at 1 h (CAD kinetic solubility) [µg/mL] | IC50 (human Nav1.8) [µM] | SMILES | other results |
| --- | --- | --- | --- |
| ≥ 192 | 0.0316 | Cc1cc(F)ccc1N1CN(c2ccc(=O)n(COP(=O)(O)O)c2C)C(=O)c2cc(C(F)(F)F)c(F)cc21 [Example 1, (5-(7-fluoro-1-(4-fluoro-2-methylphenyl)-4-oxo-6-(trifluoromethyl)-1,4-dihydroquinazolin-3(2H)-yl)-6-methyl-2-oxopyridin-1(2H)-yl)methyl dihydrogen phosphate] |  |
| 32 (≈ 71.2 µM) | 0.01 | Cc1cc(F)ccc1N1CN(c2ccc(=O)[nH]c2C)C(=O)c2cc(C(F)(F)F)c(F)cc21 [Example 1A, 7-fluoro-1-(4-fluoro-2-methylphenyl)-3-(2-methyl-6-oxo-1,6-dihydropyridin-3-yl)-6-(trifluoromethyl)-2,3-dihydroquinazolin-4(1H)-one] |  |
| ≥ 217 | 0.501 | Cc1cc(OC(F)(F)F)ccc1N1CN(c2cc(C)c(=O)n(COP(=O)(O)O)c2C)C(=O)c2cc(C(F)(F)F)cnc21 [Example 2, (3,6-dimethyl-5-(1-(2-methyl-4-(trifluoromethoxy)phenyl)-4-oxo-6-(trifluoromethyl)-1,4-dihydropyrido[2,3-d]pyrimidin-3(2H)-yl)-2-oxopyridin-1(2H)-yl)methyl dihydrogen phosphate] |  |
| 56 (≈ 109 µM) | 0.02 | Cc1cc(OC(F)(F)F)ccc1N1CN(c2cc(C)c(=O)[nH]c2C)C(=O)c2cc(C(F)(F)F)cnc21 [Example 2A, 3-(2,5-dimethyl-6-oxo-1,6-dihydropyridin-3-yl)-1-(2-methyl-4-(trifluoromethoxy)phenyl)-6-(trifluoromethyl)-2,3-dihydropyrido[2,3-d]pyrimidin-4(1H)-one] |  |
| 224 | 1.26 | Cc1c(N2CN(c3ccc(=O)n(COP(=O)(O)O)c3C)C(=O)c3cc(C(F)(F)F)ncc32)ccc(F)c1F [Example 3, (5-(1-(3,4-Difluoro-2-methylphenyl)-4-oxo-6-(trifluoromethyl)-1,4-dihydropyrido[3,4-d]pyrimidin-3(2H)-yl)-6-methyl-2-oxopyridin-1(2H)-yl)methyl dihydrogen phosphate] |  |
| ≥ 210 | 0.1 | Cc1[nH]c(=O)ccc1N1CN(c2ccc(F)c(F)c2C)c2cnc(C(F)(F)F)cc2C1=O [Example 3A, 1-(3,4-difluoro-2-methylphenyl)-3-(2-methyl-6-oxo-1,6-dihydropyridin-3-yl)-6-(trifluoromethyl)-2,3-dihydropyrido[3,4-d]pyrimidin-4(1H)-one] |  |
| 157 | 0.0316 | Cc1c(N2CN(c3ccc(=O)n(COP(=O)(O)O)c3C)C(=O)c3cc(F)c(Cl)cc32)ccc(F)c1F [Example 4, (5-(7-chloro-1-(3,4-difluoro-2-methylphenyl)-6-fluoro-4-oxo-1,4-dihydroquinazolin-3(2H)-yl)-6-methyl-2-oxopyridin-1(2H)-yl)methyl dihydrogen phosphate] | Vd ([1]; male, Han Wistar, blood, prodrug Example 4, intravenous infusion, 1 mg/kg, mean ± SD, N=3, read-out: Vdss): 0.687 ± 0.284 L/kg; Cmax ([1]; male, Han Wistar, prodrug Example 4 in blood, 60-minute intravenous infusion of Example 4, 1 mg/kg (Table 5A: 1.2 ± 0.1 mg/kg), mean ± SD, N=3): 238 ± 45 ng/mL; MRT [1, 2]: 6 ± 1.2 min; half-life [1, 2]: 40.2 ± 17.4 min; AUC(0-inf) [1, 3]: 197 ± 44 ng·h/mL; AUC(0-t) [1, 3]: 197 ± 284 ng·h/mL; clearance ([1]; male, Han Wistar, systemic blood clearance of prodrug Example 4, intravenous infusion, 1 mg/kg, mean ± SD, N=3): 110 ± 33 mL/min/kg; quantifiable concentrations following oral administration ([1]; prodrug Example 4 in blood, oral via gastric cannula, 2 mg/kg (Table 5A: 3.0 ± 0.0 mg/kg)): There were no |
| 135 | 0.0631 | Cc1cc(F)ccc1N1CN(c2ccc(=O)n(COP(=O)(O)O)c2C)C(=O)c2cc(F)c(Cl)cc21 [Example 5, (5-(7-Chloro-6-fluoro-1-(4-fluoro-2-methylphenyl)-4-oxo-1,4-dihydroquinazolin-3(2H)-yl)-6-methyl-2-oxopyridin-1(2H)-yl)methyl dihydrogen phosphate] |  |

Reference: US20230416287A1, “Chemical Compounds” (GLAXOSMITHKLINE INTELLECTUAL PROPERTY DEVELOPMENT LIMITED, priority 2022, published 2023)
